Publication PMC8151276, “An Integrated Approach toward NanoBRET Tracers for Analysis of GPCR Ligand Engagement” (Molecules, 2021)

What was measured:
Assay type in all cases: binding
PDGFRB = molecular target: T1, PDGFRB (Homo sapiens, UniProt P09619); experiment: NanoBRET screen HiBiT-PDGFRB in HEK293; conditions: PDGFRB
T1 construct: purchased Promega (in-house HiBiT-GPCR construct library, NanoBRET)
Method: (§1) Each tracer candidate was screened across the entire library of HiBiT-GPCR constructs using NanoBRET as the detection modality. As depicted in Figure 4A, the specificity of interactions was evaluated through decrease in BRET due to competitive displacement of a bound tracer by excess parental compound. Each tracer was analyzed for binding to each HiBiT-GPCR fusion in the absence and in the presence of competing parental compound. Briefly, HEK293 cells were transfected with HiBiT-GPCR constructs diluted into promoterless DNA to reduce expression and maximize translocation to the cell surface. Each tracer candidate was then screened at concentrations of 1 μM and 0.1 μM across cells expressing these fusions. Cells were treated for 1.5 h with tracer either alone or in the presence of 20 μM competing parental compound (i.e., control). BRET was measured upon addition of purified LgBiT and subsequent complementation with HiBiT genetically fused to a GPCR. The specificity of interactions was assessed through a decrease in BRET signal due to competitive displacement of the bound tracer. To further gauge the robustness of these interactions, the fold response over the control (i.e., BRETtracer/BRETcontrol) was calculated. We chose a 1.5-fold response, which translates to ≥7-fold signal over noise as the minimal threshold required to score an interaction as positive. […]. Below we highlight the screening results obtained for our exemplary fluorescent tracers based on Clozapine, Amitriptyline and AZD1283.
(§2) HiBiT-GPCR DNA constructs were diluted in 10 mM Tris pH 8 to a final concentration of 0.01 μg/μL, arrayed in 96-well plates and stored at −20 °C. For transfection, HEK293 cells were suspended in Opti-MEM (without phenol red) supplemented with 2% fetal bovine serum (Seradigm) and 100 units/mL penicillin–streptomycin (Gibco) at a final concentration of 220,000 cells/mL and dispensed into white 96-well plates at 90 μL/well. Subsequent transfections and screens were carried using an Agilent Bravo Automated Liquid Handling Platform. First, the 96-well HiBiT DNA arrays were diluted 25-fold in Opti-MEM (without serum or phenol red) to a final concentration of 0.0004 μg/μL and 20 μL of the diluted DNAs were transferred into new 96-well plates. Next, promoterless carrier DNA (1 μg/μL) was diluted 25-fold (0.04 μg/μL) and then dispensed into the diluted arrays at 20 μL/well. Following brief mixing, Viafect transfection reagent (Promega) diluted 16-fold into Opti-MEM was dispensed into the plates at 40 μL/well. After mixing by pipetting, plates were incubated for 10 min on the pipetting station deck. The DNA-transfection reagent complexes were then added to plates containing cells. To facilitate the screen, 10 μL of DNA-transfection reagent complexes were added in duplicates to the top 4 and bottom 4 rows, resulting in two identical 48-well arrays per plate. Plates with transfected cells were incubated for 18–20 h at 37 °C/5% CO2. A screen of each tracer across the entire library using two different concentrations requires duplicate plates of transfected cells. Depending on the number of tracers being screened, transfections can be scaled up using the same ratios. The next day, for each tracer, four 20× screening solutions in tracer dilution buffer (Promega) were prepared: two duplicates at final concentration of 20 μM and two duplicates at a final concentration of 2 μM. A competing unmodified compound was added to one of each duplicate at a final concentration of 400 μM. The four resulting solutions were diluted 4-fold in Opti-MEM without serum or phenol red to generate 5× solutions (5 µM and 0.5 µM tracer +/− 100 μM competing compound). To screen the library, a BioTek MultiFlo FX liquid dispenser was used to dispense 22.5 µL of tracer solution to the top 4 rows and 22.5 µL tracer + competing compound solution to the 4 bottom rows. Plates were briefly mixed on an orbital shaker and incubated for 1.5 h at room temperature. […]

F2RL3 = molecular target: T2, F2RL3 (Homo sapiens, UniProt Q96RI0); experiment: NanoBRET screen HiBiT-F2RL3 in HEK293; conditions: F2RL3
T2 construct: purchased Promega (in-house HiBiT-GPCR construct library, NanoBRET)
T2 sequence (Q96RI0 18-385): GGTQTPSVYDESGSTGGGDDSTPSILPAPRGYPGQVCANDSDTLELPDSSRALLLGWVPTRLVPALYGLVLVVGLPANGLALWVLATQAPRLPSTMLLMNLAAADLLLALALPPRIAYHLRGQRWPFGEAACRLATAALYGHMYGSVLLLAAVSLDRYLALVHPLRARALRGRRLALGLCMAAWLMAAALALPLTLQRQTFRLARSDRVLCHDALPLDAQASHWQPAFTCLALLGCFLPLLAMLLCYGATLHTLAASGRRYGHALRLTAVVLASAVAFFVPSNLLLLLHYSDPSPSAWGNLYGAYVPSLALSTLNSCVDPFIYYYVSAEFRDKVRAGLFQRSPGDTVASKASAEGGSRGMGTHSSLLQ
Method: as §1, §2

PTAFR = molecular target: T3, PTAFR (Homo sapiens, UniProt P25105); experiment: NanoBRET screen HiBiT-PTAFR in HEK293; conditions: PTAFR
T3 construct: purchased Promega (in-house HiBiT-GPCR construct library, NanoBRET)
T3 sequence (P25105 whole entry): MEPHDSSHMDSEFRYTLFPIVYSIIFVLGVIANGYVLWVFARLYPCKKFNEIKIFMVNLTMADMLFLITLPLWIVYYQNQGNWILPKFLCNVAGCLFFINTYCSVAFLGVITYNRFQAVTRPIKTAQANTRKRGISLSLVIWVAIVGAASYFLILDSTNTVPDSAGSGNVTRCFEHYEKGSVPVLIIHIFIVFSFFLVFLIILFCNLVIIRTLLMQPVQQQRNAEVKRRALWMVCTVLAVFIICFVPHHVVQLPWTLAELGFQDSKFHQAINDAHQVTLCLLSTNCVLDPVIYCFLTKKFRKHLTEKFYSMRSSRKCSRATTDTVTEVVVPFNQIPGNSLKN
Method: as §1, §2

PTGER1 = molecular target: T4, PTGER1 (Homo sapiens, UniProt P34995); experiment: NanoBRET screen HiBiT-PTGER1 in HEK293; conditions: PTGER1
T4 construct: purchased Promega (in-house HiBiT-GPCR construct library, NanoBRET)
T4 sequence (P34995 1-402): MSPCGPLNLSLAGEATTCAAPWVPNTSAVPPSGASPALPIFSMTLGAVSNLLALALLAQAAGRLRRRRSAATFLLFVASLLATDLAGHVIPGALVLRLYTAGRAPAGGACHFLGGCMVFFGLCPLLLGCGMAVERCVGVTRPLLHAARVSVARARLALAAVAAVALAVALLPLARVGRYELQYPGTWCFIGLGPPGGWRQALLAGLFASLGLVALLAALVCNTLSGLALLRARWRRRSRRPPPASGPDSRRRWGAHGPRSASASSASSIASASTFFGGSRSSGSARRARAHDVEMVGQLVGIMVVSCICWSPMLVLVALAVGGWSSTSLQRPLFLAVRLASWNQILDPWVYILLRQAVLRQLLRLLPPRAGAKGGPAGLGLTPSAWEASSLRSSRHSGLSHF
Method: as §1, §2

CXCR1 = molecular target: T5, CXCR1 (Homo sapiens, UniProt P25024); experiment: NanoBRET screen HiBiT-CXCR1 in HEK293; conditions: CXCR1
T5 construct: purchased Promega (in-house HiBiT-GPCR construct library, NanoBRET)
T5 sequence (P25024 1-350): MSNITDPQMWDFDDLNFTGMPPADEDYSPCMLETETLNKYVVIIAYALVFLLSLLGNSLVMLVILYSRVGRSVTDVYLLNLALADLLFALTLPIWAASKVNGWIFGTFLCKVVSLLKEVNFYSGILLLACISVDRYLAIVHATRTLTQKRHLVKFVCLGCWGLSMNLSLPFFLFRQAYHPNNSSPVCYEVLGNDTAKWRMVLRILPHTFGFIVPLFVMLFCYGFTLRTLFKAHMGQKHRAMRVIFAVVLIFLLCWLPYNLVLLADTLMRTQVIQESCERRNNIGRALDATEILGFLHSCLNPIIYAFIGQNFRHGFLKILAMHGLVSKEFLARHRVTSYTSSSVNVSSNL
Method: as §1, §2

NTSR1 = molecular target: T6, NTSR1 (Homo sapiens, UniProt P30989); experiment: NanoBRET screen HiBiT-NTSR1 in HEK293; conditions: NTSR1
T6 construct: purchased Promega (in-house HiBiT-GPCR construct library, NanoBRET)
T6 sequence (P30989 whole entry): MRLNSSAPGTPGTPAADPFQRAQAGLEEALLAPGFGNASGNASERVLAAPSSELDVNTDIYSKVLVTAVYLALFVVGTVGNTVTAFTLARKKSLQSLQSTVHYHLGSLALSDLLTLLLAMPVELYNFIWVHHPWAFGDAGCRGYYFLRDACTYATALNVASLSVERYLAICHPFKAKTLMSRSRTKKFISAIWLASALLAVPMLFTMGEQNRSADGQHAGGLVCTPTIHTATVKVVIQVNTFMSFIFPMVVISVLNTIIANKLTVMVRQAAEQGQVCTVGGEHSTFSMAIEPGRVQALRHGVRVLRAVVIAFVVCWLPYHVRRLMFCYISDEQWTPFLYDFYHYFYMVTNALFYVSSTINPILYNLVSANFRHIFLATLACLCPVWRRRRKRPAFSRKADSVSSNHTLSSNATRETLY
Method: as §1, §2

T1 sequence (P09619 33-1106): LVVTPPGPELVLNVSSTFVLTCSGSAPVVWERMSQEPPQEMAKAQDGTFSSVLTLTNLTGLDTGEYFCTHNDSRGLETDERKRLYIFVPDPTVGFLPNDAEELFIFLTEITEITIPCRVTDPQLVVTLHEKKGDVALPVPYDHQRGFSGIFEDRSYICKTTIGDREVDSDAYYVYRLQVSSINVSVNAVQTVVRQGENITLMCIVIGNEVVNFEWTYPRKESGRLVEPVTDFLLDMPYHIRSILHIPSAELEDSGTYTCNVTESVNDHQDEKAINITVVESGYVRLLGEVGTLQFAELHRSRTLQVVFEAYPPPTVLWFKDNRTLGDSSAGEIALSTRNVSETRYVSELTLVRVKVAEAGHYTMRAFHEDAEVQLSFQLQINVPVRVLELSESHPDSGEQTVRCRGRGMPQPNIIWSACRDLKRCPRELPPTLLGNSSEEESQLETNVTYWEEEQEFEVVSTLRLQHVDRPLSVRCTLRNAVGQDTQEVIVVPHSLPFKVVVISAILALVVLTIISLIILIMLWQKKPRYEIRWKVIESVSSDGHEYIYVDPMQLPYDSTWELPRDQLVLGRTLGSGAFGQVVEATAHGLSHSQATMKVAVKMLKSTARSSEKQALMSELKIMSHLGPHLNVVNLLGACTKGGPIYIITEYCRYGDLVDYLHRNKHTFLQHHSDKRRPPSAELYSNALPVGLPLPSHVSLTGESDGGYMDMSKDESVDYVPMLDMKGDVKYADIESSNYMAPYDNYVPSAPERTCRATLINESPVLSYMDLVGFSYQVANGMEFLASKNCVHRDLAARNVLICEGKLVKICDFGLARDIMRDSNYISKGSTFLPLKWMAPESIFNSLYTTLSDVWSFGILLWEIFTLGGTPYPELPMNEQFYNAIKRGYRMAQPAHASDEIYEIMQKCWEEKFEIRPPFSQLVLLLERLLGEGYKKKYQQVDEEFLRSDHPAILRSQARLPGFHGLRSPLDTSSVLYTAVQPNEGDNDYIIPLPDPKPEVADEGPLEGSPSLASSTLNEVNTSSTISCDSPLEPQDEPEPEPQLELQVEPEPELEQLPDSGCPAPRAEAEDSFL

| SMILES | NanoBRET Fold Response (PDGFRB; 0.1μM tracer) | NanoBRET Fold Response (PDGFRB; 1μM tracer) | NanoBRET Fold Response (F2RL3; 0.1μM tracer) | NanoBRET Fold Response (F2RL3; 1μM tracer) | NanoBRET Fold Response (PTAFR; 0.1μM tracer) | NanoBRET Fold Response (PTAFR; 1μM tracer) | NanoBRET Fold Response (PTGER1; 0.1μM tracer) | NanoBRET Fold Response (PTGER1; 1μM tracer) | NanoBRET Fold Response (PDGFRB; tracer 0.1μM) | NanoBRET Fold Response (PDGFRB; tracer 1μM) | NanoBRET Fold Response (F2RL3; tracer 0.1μM) | NanoBRET Fold Response (F2RL3; tracer 1μM) | NanoBRET Fold Response (PTAFR; tracer 0.1μM) | NanoBRET Fold Response (PTAFR; tracer 1μM) | NanoBRET Fold Response (PTGER1; tracer 0.1μM) | NanoBRET Fold Response (PTGER1; tracer 1μM) | NanoBRET Fold Response (CXCR1; tracer 0.1μM) | NanoBRET Fold Response (CXCR1; tracer 1μM) | NanoBRET Fold Response (NTSR1; tracer 0.1μM) | NanoBRET Fold Response (NTSR1; tracer 1μM) | further results |
| --- | --- | --- | --- | --- | --- | --- | --- | --- | --- | --- | --- | --- | --- | --- | --- | --- | --- | --- | --- | --- | --- |
| CN1CCN(C2=Nc3cc(Cl)ccc3Nc3ccc(CNC(=O)CCOCCOCCOCCOCCNC(=O)CCc4ccc5n4[B-](F)(F)[N+]4=C(c6ccc[nH]6)C=CC4=C5)cc32)CC1 [Clozapine-b-2-NB590] | 1.02 | 0.99 | 0.99 | 1.05 | 1.01 | 1.14 | 1.01 | 0.97 |  |  |  |  |  |  |  |  |  |  |  |  | NanoBRET Fold Response (CXCR1; 0.1μM tracer): 1.00; NanoBRET Fold Response (CXCR1; 1μM tracer): 0.99; NanoBRET Fold Response (NTSR1; 0.1μM tracer): 1.00; NanoBRET Fold Response (NTSR1; 1μM tracer): 1.01 |
| CN1CCN(C2=Nc3cc(Cl)ccc3N(CC(=O)NCCOCCOCCOCCOCCNC(=O)CCc3ccc4n3[B-](F)(F)[N+]3=C(c5ccc[nH]5)C=CC3=C4)c3ccccc32)CC1 [Clozapine-c-2-NB590] | 1.00 | 0.87 | 1.02 | 0.99 | 1.01 | 1.02 | 1.00 | 0.92 |  |  |  |  |  |  |  |  |  |  |  |  | NanoBRET Fold Response (CXCR1; 0.1μM tracer): 0.99; NanoBRET Fold Response (CXCR1; 1μM tracer): 0.94; NanoBRET Fold Response (NTSR1; 0.1μM tracer): 1.02; NanoBRET Fold Response (NTSR1; 1μM tracer): 1.01 |
| O=C(CCOCCOCCOCCOCCNC(=O)CCc1ccc2n1[B-](F)(F)[N+]1=C(c3ccc[nH]3)C=CC1=C2)NCCCN1CCN(C2=Nc3ccccc3Oc3ccc(Cl)cc32)CC1 [Loxapine-a-2-NB590] |  |  |  |  |  |  |  |  | 1.12 | 1.00 | 1.00 | 1.02 | 1.10 | 1.09 | 1.09 | 1.08 | 1.02 | 0.94 | 0.99 | 1.08 |  |
| COc1ccccc1N1CCN(CCCCN2C(=O)c3ccc(CNC(=O)CCOCCOCCOCCOCCNC(=O)CCc4ccc5n4[B-](F)(F)[N+]4=C(c6ccc[nH]6)C=CC4=C5)cc3C2=O)CC1 [NAN-190-2-NB590] |  |  |  |  |  |  |  |  | 0.99 | 1.00 | 0.99 | 1.01 | 1.03 | 1.04 | 0.93 | 1.04 | 0.97 | 1.05 | 0.97 |  |  |
| COc1ccccc1N1CCN(CCCCN2C(=O)c3ccc(CNC(=O)CCOCCNC(=O)c4ccc(CNC(=O)CCc5ccc6n5[B-](F)(F)[N+]5=C(c7ccc[nH]7)C=CC5=C6)cc4)cc3C2=O)CC1 [NAN-190-3-NB590] |  |  |  |  |  |  |  |  | 0.93 | 1.07 | 1.15 | 0.99 | 1.05 | 1.30 | 0.89 | 1.11 | 0.93 | 0.83 | 0.90 | 0.99 |  |
| O=C(CCc1ccc2n1[B-](F)(F)[N+]1=C(c3ccc[nH]3)C=CC1=C2)NCc1ccc(C(=O)NCCOCCC(=O)N[C@@H]2CC[C@@]3(O)[C@H]4Cc5ccc(O)c6c5[C@@]3(CCN4CC3CC3)[C@H]2O6)cc1 [Naltrexone-3-NB590] |  |  |  |  |  |  |  |  | 0.24 | 0.95 | 0.92 | 1.03 | 1.24 | 0.78 | 1.01 | 1.02 | 0.95 | 0.75 | 1.07 | 0.93 |  |
